# Test results published in patent US8557816B2, “Aurora kinase modulators and method of use” (Amgen Inc., priority 2007, dated 2013).
# Assays:
# AuroraA-TPX2 = molecular target: T1, AuroraA-TPX2 (Homo sapiens, UniProt O14965); test: AuroraA-TPX2 Homogeneous Time Resolved Fluorescent (HTRF) kinase assay; type: biochemical; settings: average; read-out: AurA_IC50_IP (uM Avg)
# T1 construct: 20 μL of AuroraA-TPX2 KD GST for a final volume of about 41 μL; GST
# T1 sequence (O14965 133-383 limits assumed): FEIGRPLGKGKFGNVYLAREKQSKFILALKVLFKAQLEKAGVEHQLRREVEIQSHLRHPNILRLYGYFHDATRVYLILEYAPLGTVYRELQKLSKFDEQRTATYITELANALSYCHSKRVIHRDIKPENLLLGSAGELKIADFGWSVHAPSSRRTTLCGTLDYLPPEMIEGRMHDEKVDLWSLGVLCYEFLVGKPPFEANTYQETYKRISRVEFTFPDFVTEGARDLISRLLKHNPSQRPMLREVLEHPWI
# T1 sequence (Q9ULW0 1-43 partner limits assumed): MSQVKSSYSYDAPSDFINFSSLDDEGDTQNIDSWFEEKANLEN
# In short: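 HTRF read-out (Eu 615 nm to APC 655 nm) of phosphorylated biotin-PLK, detected with 0.02 nM europium anti-phosphoPLK antibody and 0.0005 mg/mL SA-APC after overnight equilibration.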
# AuroraB = molecular target: T2, AuroraB (Homo sapiens, UniProt Q96GD4); test: AuroraB Homogeneous Time Resolved Fluorescent (HTRF) kinase assay; type: biochemical; settings: average; read-out: AurB_IC50_IP (uM Avg)
# T2 construct: 20 μL of AuroraB FL H is for a final volume of 41 μL; His
# In short: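 Full-length His-tagged kinase phosphorylates biotinylated Histone H3 (0.1 μM final) with ATP in pH 7.5 HEPES containing MgCl, MnCl, DTT and BSA for about 90 min. EDTA-containing detection mix with SA-APC and Eu-anti-phosphoHistone H3 then equilibrated about 60 min; HTRF read with 320 nm excitation, emissions 615/655 nm.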
# T2 sequence (Q96GD4 whole entry): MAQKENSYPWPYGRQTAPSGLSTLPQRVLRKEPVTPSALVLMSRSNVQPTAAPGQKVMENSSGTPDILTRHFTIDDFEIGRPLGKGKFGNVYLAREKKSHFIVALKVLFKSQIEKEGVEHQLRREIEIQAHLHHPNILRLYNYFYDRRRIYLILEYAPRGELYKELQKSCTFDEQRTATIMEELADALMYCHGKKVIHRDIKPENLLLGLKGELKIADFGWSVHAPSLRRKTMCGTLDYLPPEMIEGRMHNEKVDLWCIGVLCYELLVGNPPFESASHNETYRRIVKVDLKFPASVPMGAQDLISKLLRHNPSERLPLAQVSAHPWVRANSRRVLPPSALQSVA
SMILES,IC50 (AuroraA-TPX2) [µM],IC50 (AuroraB) [µM]
"COc1cnc2c(Oc3ccc(Nc4nnc(-c5ccc(F)c(F)c5)c5ccccc45)cc3)ccnc2c1 [compound 214, 4-(3,4-difluorophenyl)-N-(4-((7-(methyloxy)-1,5-naphthyridin-4-yl)oxy)phenyl)-1-phthalazinamine]",0.085,0.007
"COc1cnc2c(Oc3ccc(Nc4nnc(-c5cncnc5)c5ccccc45)cc3)ccnc2c1 [compound 215, N-(4-((7-(methyloxy)-1,5-naphthyridin-4-yl)oxy)phenyl)-4-(5-pyrimidinyl)-1-phthalazinamine]",0.743,0.024
"COc1cnc2c(Oc3ccc(Nc4nnc(-c5cnn(C)c5)c5ccccc45)cc3)ccnc2c1 [compound 216, N-(4-((7-(methyloxy)-1,5-naphthyridin-4-yl)oxy)phenyl)-4-(1-methyl-1H-pyrazol-4-yl)-1-phthalazinamine]",0.16,0.006
"N#Cc1ccc(-c2nnc(Nc3ccc(Oc4ccnc5cc(C#N)ccc45)cc3)c3ccccc23)cc1 [compound 217, 4-((4-((4-(4-cyanophenyl)-1-phthalazinyl)amino)phenyl)oxy)-7-quinolinecarbonitrile]",0.454,0.016
"COc1cnc2c(Oc3ccc(Nc4nnc(-c5ccnn5C)c5ccccc45)cc3)ccnc2c1 [compound 223, N-(4-((7-(methyloxy)-1,5-naphthyridin-4-yl)oxy)phenyl)-4-(1-methyl-1H-pyrazol-5-yl)-1-phthalazinamine]",1.33,0.039
"COc1cnc2c(Oc3ccc(Nc4nnc(-c5cccc(C(=O)N(C)C)c5)c5ccccc45)cc3)ccnc2c1 [compound 226, N,N-dimethyl-3-(4-((4-((7-(methyloxy)-1,5-naphthyridin-4-yl)oxy)phenyl)amino)-1-phthalazinyl)benzamide]",0.187,0.014
"c1ccc(-c2nnc(Nc3ccc(Oc4ccnc5c4NCCC5)cc3)c3ccccc23)cc1 [compound 230, 4-phenyl-N-(4-(5,6,7,8-tetrahydro-1,5-naphthyridin-4-yloxy)phenyl)-1-phthalazinamine]",5,0.031
"N#Cc1ccc2c(Oc3ccc(Nc4nnc(-c5ccc(Cl)c(C#N)c5)c5ccccc45)cc3)ccnc2c1 [compound 231, 4-((4-((4-(4-chloro-3-cyanophenyl)-1-phthalazinyl)amino)phenyl)oxy)-7-quinolinecarbonitrile]",0.379,0.032
"COc1cnc2c(Oc3ccc(Nc4nnc(-c5ccc(Cl)cc5C)c5ccccc45)cc3)ccnc2c1 [compound 233, 4-(4-chloro-2-methylphenyl)-N-(4-((7-(methyloxy)-1,5-naphthyridin-4-yl)oxy)phenyl)-1-phthalazinamine]",0.845,0.021
"COc1cnc2c(Oc3ccc(Nc4nnc(-c5ccccc5)cc4C(C)C)cc3)ccnc2c1 [compound 234, 4-(1-methylethyl)-N-(4-((7-(methyloxy)-1,5-naphthyridin-4-yl)oxy)phenyl)-6-phenyl-3-pyridazinamine]",0.173,0.006
"COc1cnc2c(Oc3ccc(Nc4nnc(-c5ccc(Cl)nc5)c5ccccc45)cc3)ccnc2c1 [compound 235, 4-(6-chloro-3-pyridinyl)-N-(4-((7-(methyloxy)-1,5-naphthyridin-4-yl)oxy)phenyl)-1-phthalazinamine]",0.123,0.003

# Compounds with a lower IC50 (AuroraA-TPX2), results first:
IC50 (AuroraA-TPX2) [µM],IC50 (AuroraB) [µM],SMILES
0.079,0.011,"COc1cnc2c(Oc3ccc(Nc4nnc(-c5ccc(OC)c(C)c5)c5ccccc45)cc3)ccnc2c1 [compound 213, 4-(3-methyl-4-(methyloxy)phenyl)-N-(4-((7-(methyloxy)-1,5-naphthyridin-4-yl)oxy)phenyl)-1-phthalazinamine]"
0.051,0.01,"COc1cnc2c(Oc3ccc(Nc4nnc(-c5cccc(Cl)c5)c5ccccc45)cc3)ccnc2c1 [compound 219, 4-(3-chlorophenyl)-N-(4-((7-(methyloxy)-1,5-naphthyridin-4-yl)oxy)phenyl)-1-phthalazinamine]"
0.051,0.003,"COc1cnc2c(Oc3ccc(Nc4nnc(-c5ccc(OC)c(F)c5)c5ccccc45)cc3)ccnc2c1 [compound 227, 4-(3-fluoro-4-(methyloxy)phenyl)-N-(4-((7-(methyloxy)-1,5-naphthyridin-4-yl)oxy)phenyl)-1-phthalazinamine]"
0.047,0.004,"COc1cnc2c(Oc3ccc(Nc4nnc(-c5ccc(F)cc5)c5ccccc45)cc3)ccnc2c1 [compound 220, 4-(4-fluorophenyl)-N-(4-((7-(methyloxy)-1,5-naphthyridin-4-yl)oxy)phenyl)-1-phthalazinamine]"
0.047,0.006,"COc1cnc2c(Oc3ccc(Nc4nnc(-c5ccc(Cl)cc5)c5ccccc45)cn3)ccnc2c1 [compound 222, 4-(4-chlorophenyl)-N-(6-((7-(methyloxy)-1,5-naphthyridin-4-yl)oxy)-3-pyridinyl)-1-phthalazinamine]"
0.036,0.015,"COc1cnc2c(Sc3ccc(Nc4nnc(-c5ccc(Cl)cc5)c5ccccc45)cc3)ccnc2c1 [compound 232, 4-(4-chlorophenyl)-N-(4-((7-(methyloxy)-1,5-naphthyridin-4-yl)thio)phenyl)-1-phthalazinamine]"
0.034,0.011,"COc1cnc2c(Oc3ccc(Nc4nnc(-c5ccc(C)c(Cl)c5)c5ccccc45)cc3)ccnc2c1 [compound 224, 4-(3-chloro-4-methylphenyl)-N-(4-((7-(methyloxy)-1,5-naphthyridin-4-yl)oxy)phenyl)-1-phthalazinamine]"
0.034,0.004,"COc1cnc2c(Oc3ccc(Nc4nnc(-c5ccc(Cl)cn5)c5ccccc45)cc3)ccnc2c1 [compound 228, 4-(5-chloro-2-pyridinyl)-N-(4-((7-(methyloxy)-1,5-naphthyridin-4-yl)oxy)phenyl)-1-phthalazinamine]"
0.027,0.003,"COc1cnc2c(Oc3ccc(Nc4nnc(-c5ccccc5)c5ccsc45)cc3)ccnc2c1 [compound 218, N-(4-((7-(methyloxy)-1,5-naphthyridin-4-yl)oxy)phenyl)-4-phenylthieno[2,3-d]pyridazin-7-amine]"
0.027,0.008,"COc1cnc2c(Oc3ccc(Nc4nnc(-c5ccc(Cl)c(C)c5)c5ccccc45)cc3)ccnc2c1 [compound 236, 4-(4-chloro-3-methylphenyl)-N-(4-((7-(methyloxy)-1,5-naphthyridin-4-yl)oxy)phenyl)-1-phthalazinamine]"
0.026,0.007,"CCc1ccc(-c2nnc(Nc3ccc(Oc4ccnc5cc(OC)cnc45)cc3)c3ccccc23)cc1 [compound 221, 4-(4-ethylphenyl)-N-(4-((7-(methyloxy)-1,5-naphthyridin-4-yl)oxy)phenyl)-1-phthalazinamine]"
0.024,0.007,"CCc1ccc(-c2nnc(Nc3ccc(Oc4ccnc5cc(OC)cnc45)cc3)c3ccccc23)s1 [compound 229, 4-(5-ethyl-2-thienyl)-N-(4-((7-(methyloxy)-1,5-naphthyridin-4-yl)oxy)phenyl)-1-phthalazinamine]"
0.023,0.004,"COc1cc2nccc(Oc3ccc(Nc4nnc(-c5ccccc5)c5ccccc45)cc3)c2cc1C(N)=O [compound 225, 7-(methyloxy)-4-((4-((4-phenyl-1-phthalazinyl)amino)phenyl)oxy)-6-quinolinecarboxamide]"
